Test results reported in PubChem BioAssay (NCI).
Several values for one entry are separate records, joined by “and”; a condition that tells them apart may be missing. Equal values may be shown once.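 48-hour exposure; five concentrations; linearly interpolated endpoints. The concentration for full growth arrest is given as TGI.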

Assays:
Assay in all cases: NCI anticancer screen, dose series, 48 h
DMS 273 small cell lung = system: DMS 273 small cell lung
LXFL 529 NSCLC = system: LXFL 529 NSCLC
HOP-18 NSCLC = system: HOP-18 NSCLC
SNB-78 CNS = system: SNB-78 CNS
DLD-1 colon = system: DLD-1 colon
XF 498 CNS = system: XF 498 CNS
DMS 114 small cell lung = system: DMS 114 small cell lung
MDA-N = system: MDA-N
RXF-631 renal = system: RXF-631 renal

Structure (SMILES) | TGI (DMS 273 small cell lung) [µM] | TGI (LXFL 529 NSCLC) [µM] | TGI (HOP-18 NSCLC) [µM] | TGI (SNB-78 CNS) [µM] | TGI (DLD-1 colon) [µM] | TGI (XF 498 CNS) [µM] | TGI (DMS 114 small cell lung) [µM] | TGI (MDA-N) | TGI (RXF-631 renal) [µM]
O=C(O)C1=C(C(=O)O)Oc2ccccc2O1 | > 100 | > 100 | > 100 | > 100 | > 100 | > 100 | > 100 | – | –
Cc1cc2c(cc1C)[n+](=O)c(C(=O)/C=C/c1ccccc1[N+](=O)[O-])c(C)n2[O-] | > 94.5 | > 100 | > 93.6 | > 80.9 | > 100 | 37.7 | 49.1 | > 100 µM | –
CCC1=C(c2ccc(OC)cc2)CC[C@]2(CCNC2=O)[C@@H]1C | – | – | – | – | – | – | – | 58.3 µM | –
N=C(N)c1ccc(OCCCCCOc2ccc(C(=N)N)cc2)cc1 | – | – | – | – | – | – | – | 26.5 µM and 36 µM | –
CC1=C(C(=O)CC(=O)C(=O)Nc2ccccc2C)Sc2ccccc2N1 | > 100 | – | > 100 | > 100 | > 67.9 | – | – | – | –
O=C(Nc1ccc(Cl)c(C(F)(F)F)c1)C(=O)c1c(O)c2ccccc2oc1=O | – | – | – | – | – | – | – | > 100 µM | –
NNC(=O)N/N=C1\CNC(=O)C(=O)C1c1nc2ccccc2s1 (centres undefined) | > 100 | > 100 | – | > 100 | > 100 | > 100 | > 100 | – | –
O=S(=O)(Cc1ccccc1)SCc1ccccc1 | 98.2 | – | 84.3 | 48.2 | 21.9 | – | 32 | – | 36.4
Nc1c(-c2nc3ccccc3s2)[n+]([O-])c2ccccc2[n+]1[O-] | – | 77.6 | 86.2 | > 100 | > 100 | – | > 100 | – | –
O=C1c2ccoc2C(=O)c2oc(=O)ccc21 | 31.6 | 15.2 | 36 | 42.8 | 36.4 | 40 | 4.42 | – | –
COc1cc2c(cc1OC)C(SC)C(=O)N(Cc1cccc(OC)c1OC)CC2 (centres undefined) | 12.2 | 39.5 | > 100 | 5.19 | > 100 | – | 5.49 | 1.53 µM | –
Cc1c(C)c2ccc(OC(C)C(=O)O)cc2oc1=O (centres undefined) | – | > 100 | > 100 | > 100 | > 100 | 99 | > 100 | – | > 100
Cn1cc(NC(=O)c2cc(NC(=O)CCCCCCCC(=O)Nc3cc(C(=O)Nc4cc(C(=O)NCCC(=N)N)n(C)c4)n(C)c3)cn2C)cc1C(=O)NCCC(=N)N | 25 | 28.8 | > 100 | 93.5 | > 100 | 56.1 | 11.9 | – | > 100
Cn1c(CC(O)c2nc3ccccc3n2C)nc2ccccc21 (centres undefined) | – | – | – | – | – | – | – | > 100 µM | –
Nc1ncnc2sc(Nc3ccccc3)nc12 | > 100 | > 100 | – | > 100 | > 100 | > 100 | – | – | > 100
CCOc1ccc(/C=C2/C(=O)N=C(N)N=C2N)cc1OCC | > 100 | > 100 | > 100 | > 100 | – | > 100 | > 100 | – | > 100
Nc1nc(-c2ccccc2)cc(-c2cc(Cl)ccc2O)n1 | > 100 | > 100 | > 100 | > 100 | > 100 | – | > 100 | – | > 100
Cc1cc(OC(=O)c2c(C)cc(OC(=O)c3c(C)cc(O)cc3O)cc2O)cc(O)c1C(=O)O | > 100 | > 100 | – | > 100 | > 100 | > 100 | > 100 | – | > 100
O=C(Nc1ccc(Cl)c(Cl)c1)C1C(=O)N(c2ccc(Cl)c(Cl)c2)C(=O)/C1=N\O (centres undefined) | > 100 | > 100 | > 100 | > 100 | > 100 | – | 83.7 | – | –
O=C(NN1C(=O)C(Cl)C1c1c(O)ccc2ccccc12)c1ccccc1O (centres undefined) | > 100 | > 100 | > 100 | > 100 | > 100 | > 100 | > 100 | – | –
